Where two headings read alike, the source gives them in different places.
Tests used:
[1] = molecular target: T1, (Rhodococcus erythropolis, UniProt P13448+P13449); assay: Preservation of nitrile hydration activity of cell extract (crude enzyme solution), stabilizer added before crushing cells; format: biochemical, Corynebacterium strain N-774(FERM P-4446); conditions: left standing 2 days at 20° C.; buffer containing 10 g/l stabilizer mixed 1:1, pH 6.5
T1 sequence (P13448 2-207 limits assumed): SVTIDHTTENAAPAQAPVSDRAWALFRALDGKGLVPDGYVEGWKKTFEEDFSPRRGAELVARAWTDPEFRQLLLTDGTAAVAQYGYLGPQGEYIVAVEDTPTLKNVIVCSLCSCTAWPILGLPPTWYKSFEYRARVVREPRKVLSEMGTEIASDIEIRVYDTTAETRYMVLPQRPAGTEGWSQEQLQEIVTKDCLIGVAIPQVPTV
T1 sequence (P13449 1-212): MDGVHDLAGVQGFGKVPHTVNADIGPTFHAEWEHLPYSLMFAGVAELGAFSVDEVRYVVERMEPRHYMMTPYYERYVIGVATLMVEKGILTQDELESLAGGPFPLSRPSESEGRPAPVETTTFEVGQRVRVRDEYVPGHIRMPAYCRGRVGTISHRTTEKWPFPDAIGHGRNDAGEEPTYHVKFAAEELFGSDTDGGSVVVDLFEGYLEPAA
Procedure: (§1) A culture medium comprising 10 g/l of glucose, 5 g/l of peptone, 3 g/l of yeast extract, and 3 g/l of malt extract was adjusted to a pH of 7.2, and 100 ml of the resulting culture medium was sterilized in a 500-ml Erlenmeyer flask.
(§2) After cooling, the sterilized culture medium was inoculated with 1 ml of a culture fluid obtained by precultivating strain N-774(FERM P-4446) of the genus Corynebacterium in the same culture medium as is described above for 2 days, and cultivation was carried out aerobically at 30° C. for 2 days.
(§3) Cells were separated from the culture fluid by centrifugation (3° C., 10,000 rpm, 20 minutes) and washed with a physiological saline. The washed cells were subjected to centrifugation under the same conditions and then suspended in a physiological saline to obtain a suspension of washed cells.
(§4) The residual nitrile hydration activity percent (in Table 1, as in all succeeding tables, abbreviated to % residual activity) was calculated on the basis of the data thus obtained.

nitrilase [2] = molecular target: T2, nitrilase (Rhodococcus erythropolis, UniProt P13448+P13449); assay: as above; format: biochemical, Corynebacterium strain N-774(FERM P-4446)
T2 sequence (P13448 2-207 limits assumed): T1 sequence (P13448 2-207 limits assumed)
T2 sequence (P13449 1-212): T1 sequence (P13449 1-212)
Procedure: as §1, §2, §3, §4

nitrilase [3] = conditions: 1 ml + 1 ml buffer pH 6.5 containing 10 g/l stabilizer, 2 days at 20° C.
Procedure: (§5) In each of the following experimental examples, 0.1 ml of an enzyme solution was charged into a beaker containing 9.9 ml of phosphate buffer and irradiated with a 100-W EYE LAMP (supplied by Toshiba, Japan) positioned at a distance of 50 cm for 30 minutes in a bath maintained at 10° C. to induce the enzyme activity to the fullest extent. The resulting solution was then added to 10 ml of M/20 phosphate buffer (pH 7.7) containing 5.0% by weight of acrylonitrile to cause reaction at 10° C. for 10 minutes. The nitrile hydration activity of the test enzyme solution was determined by measuring the quantity of acrylamide produced by gas chromatography, the capability of producing 1μ mole of acrylamide per ml of the enzyme solution per minute being designated as 1 unit (U).
Each aliquot of a suspension of cells of a genus as shown in Table 2 prepared as in Comparison Example 1 was subjected to French press treatment and centrifugation similarly as in Comparison Example 1, whereby a cell extract was obtained.
(§6) The cell extract thus obtained was divided into two aliquots, 1 ml of one aliquot being mixed with 1 ml of M/10 phosphate buffer (pH 6.5) containing 10 g/l of ammonium isobutyrate, and 1 ml of the other aliquot being mixed with 1 ml of M/10 phosphate buffer (pH 6.5) as a comparison example. Both solutions were left standing for 2 days at 20° C., and the nitrile hydration activity levels were measured before and after each of the solutions were left standing to calculate % residual activity.

[4] = molecular target: T3, (Rhodococcus erythropolis, UniProt P13448+P13449); assay: Preservation of nitrile hydration activity of cell extract, Brevibacterium CBS-717; format: biochemical; conditions: 48 h; Brevibacterium CBS-717 extract; 1 ml + 1 ml buffer pH 6.5 containing 10 g/l stabilizer; 2 days at 20° C.; read-out: % Residual Activity
T3 construct: whereby a cell extract was obtained; endogenous in cells; host or cells: Brevibacterium CBS-717, French press cell extract
Procedure: as §5, with “(U). […]” for “(U).”
as §6

SMILES: CC(C)C(=O)O.N [ammonium isobutyrate]
- % Residual Activity [1]: 92%
- Activity Before Being Left Standing (nitrilase [2]; cell suspension mixed 1:1 with M/10 phosphate buffer pH 6.5 containing 10 g/l stabilizer, then French press): 1.3 × 10^3 U/ml
- Activity After Being Left Standing (nitrilase [2]; same extract after 2 days at 20° C.): 1.2 × 10^3 U/ml
- % Residual Activity (nitrilase [3]; Bacillus CBS-494 extract): 83%
- % Residual Activity (nitrilase [3]; Bacteridium CBS-496 extract): 78%
- % Residual Activity (nitrilase [3]; Micrococcus CBS-497 extract): 91%
- % Residual Activity (nitrilase [3]; Nocardia N-775 extract): 93%
- activity at 5000 µg/mL [4]: 89%

Source: patent US4931391A, “Method for preservation of nitrile hydration activity” (Mitsubishi Rayon Kabushiki Kaisha, priority 1986, dated 1990)
